The numbers were not newly measured in US20240299268A1, “A COMPOSITION FOR CARING FOR KERATIN MATERIALS” (L'OREAL, priority 2021, published 2024), which cites them from elsewhere.

Molecules are shown by their SMILES. Where two headings read alike, the source gives them in different places.

With `COc1cc(/C=C/C(=O)O)ccc1O` [Ferulic acid, 4-Hydroxy-3-methoxycinnamic acid], the “time until decarboxylation (loss in stability, unpleasant odor) when contacting with water” value was 30 days (content of ferulic acid no less than 1 wt. %), 15 days (content of ferulic acid no less than 1.5 wt. %) and 7 days (content of ferulic acid no less than 1.9 wt. %).
